Test results as given in patent US5036097A, “Phenylbutyl nitrone compositions and methods for prevention of gastric ulceration” (Oklahoma Medical Research Foundation, priority 1990, dated 1991).

Experiments:
[1] = tested on: piroxicam-induced gastric ulcers; experiment: suppression of piroxicam-induced gastric ulcers by interventions (PBN, free radical scavengers, ascorbate); type: in vivo, rat (male Sprague-Dawley)
Description: FIG. 2 is a graph of % control ulceration from piroxicam versus the % ulceration in the presence of free radical scavengers. The […] scavenger dimethylthiourea (DMTU, 500 mg/kg i.p.) was given 24 hours and 1 hour before piroxicam. […] The antioxidant butylated hydroxytoluene (BHT, 25 mg/kg/day i.p. in corn oil) was given for three days before and again 1 hour before piroxicam. The % control ulceration is determined by averaging the ratios of cm^2 ulceration in control stomachs from rats given piroxicam alone, and multiplying×100. +P< 0.01 compared to piroxicam alone.
(§1) Male Sprague-Dawley rats (Charles River, Wilmington, Mass.) weighing 300-325 g were housed individually in wire bottomed cages to prevent ingestion of hair and feces. Animals were maintained without food for 48 hours and without water for 24 hours prior to each experiment. Piroxicam or aspirin and other NSAIDS were suspended in a vehicle of 1% carboxymethylcellulose, 0.1% Tween 80 and 0.15 M HCl, and administered in a volume of 1 ml on the morning of study by oral gavage using an 18 gauge curved blunt needle (Popper and Sons, New Hyde Park, N.Y.). One ml of vehicle alone was administered for control experiments. HCl was added to the vehicle to insure an acid environment in the stomach in all studies. […] Four hours after the administration of NSAID or vehicle, rats were euthanized with sodium pentobarbital (100 mg/kg IP), and the surface area of ulceration per stomach was quantitated using morphometric techniques. Stomachs were removed, the lumen was exposed by an incision along the radius of greater curvature, and the stomach was washed in phosphate buffered saline. The luminal surface was laid out on a flat surface with gross folds removed by gentle distension. The percentage of surface involved with submucosal hemorrhage was then determined by point counting, as described by Weibel, E. R. Stereological Methods: Practical Methods for Biological Morphometry. Academic Press, New York 1980. This was done by tabulation of the percentage of points over ulcerations using a point counting eyepiece graticle (16×16 points in a square format). At the 12X magnification used on the Wild dissecting microscope (Wild-Heerbrugg, Basel, Switzerland), the graticle covered a 1 cm^2 area of the surface. Four to five non-overlapping sampling sites were taken to fully cover the exposed surface. To determine the total luminal surface area, the outline of the outer boundary of the stomach was traced using a transparent acetate sheet, and the area was determined from planimetry. The surface area of ulcerated regions per stomach was then determined by multiplying the surface density of ulceration regions by the luminal surface area of the stomach.
Differences in total luminal surface area in cm^2, surface area of ulcerated regions per stomach and biochemical analyses between each treatment intervention and its corresponding untreated control group are compared using the Mann-Whitney U Test, Dixon, W. J., Massey, F. J., Jr. Introduction to statistical methods, 4th edition. (New York: McGraw Hill, 1983). […] In vitro studies are compared using the Student's unpaired T-test, Dixon, W. J., Massey, F. J., Jr. Introduction to statistical methods, 4th edition. (New York: McGraw Hill, 1983). Values are expressed as mean±SEM. Significance is assumed when P<0.05.
In each experiment, the surface area of gastric ulceration produced by piroxicam in 15 treated rats was compared to that in 15 rats of the same age and size that were fasted simultaneously but which received no intervention. Phenylbutyl nitrone (30 mg/kg) was given orally in water 1 hour before piroxicam and also added to vehicle when piroxicam was administered. When intervention were given with piroxicam, the pH of the final mixture was adjusted if necessary to equal that of piroxicam and vehicle alone.

[2] = in vivo acute toxicity in rodents; conditions: doses up to 3 g/kg in rodents
Description: (§2) In vivo toxicity tests have indicated the following. […] An LD50 has yet to be determined because of the lack of toxicity.

[3] = acute i.v. toxicity in gerbils; type: in vivo; conditions: 10 to 300 mg/kg i.v., injected within 60 seconds
Description: as §2

[4] = continuous i.v. administration toxicity in gerbils; type: in vivo; conditions: 50 mg/kg/hr for a total of 48 hr
Description: as §2

[5] = bioavailability / distribution estimate; type: in vivo
[6] = pharmacokinetic studies, plasma half-life; type: in vivo; conditions: rat; limited pharmacokinetic studies
Description: Limited pharmokinetic studies indicate that the plasma half-life in the rat is three to four hours.

[7] = pH stability of PBN; type: physicochemical; conditions: degrades at pH less than approximately
[8] = previous studies, standard techniques; cited from earlier work
[9] = tested on: gastric ulceration; experiment: NSAID-induced gastric ulceration in rats (surface area of ulceration); type: in vivo, rat (male Sprague-Dawley); conditions: aspirin 200, diflunisal 125, naproxen 150, ibuprofen 230 mg/kg; oral gavage, 4 h
Description: as §1, with “Animals were maintained without food for 48 hours and without water for 24 hours prior to each experiment.” left out, “Academic Press, New York 1980.” left out
Differences in total luminal surface area in cm^2, surface area of ulcerated regions per stomach and biochemical analyses between each treatment intervention and its corresponding untreated control group are compared using the Mann-Whitney U Test, Dixon, W. J., Massey, F. J., Jr. Introduction to statistical methods, 4th edition. […] In vitro studies are compared using the Student's unpaired T-test, Dixon, W. J., Massey, F. J., Jr. Introduction to statistical methods, 4th edition. […] Values are expressed as mean±SEM. Significance is assumed when P<0.05.
Phenyl N-tert-butyl nitrone is obtained from Aldrich Chemicals, Milwaukee, Wis. All other chemicals and pharmaceuticals are from Sigma Chemical.

[10] = tested on: isolated perfused gastric mucosa; conditions: cited from earlier work

For `CC(C)(C)[N+]([O-])=Cc1ccccc1` [PBN, N-tert-Butyl-α-phenylnitrone], the ulcerations/unit area ([1]; piroxicam 23 mg/kg only, or plus PBN 30 mg/kg orally 1 hour before and with piroxicam, p<0.0052) was 0.077±0.104 ulcerations/unit area, the “inhibition of piroxicam-induced ulcers, in words” value ([1]; piroxicam 23 mg/kg, FIG. 2) was “markedly inhibited” and the “adverse effects, acute doses” value [2] was “no adverse effects”. The “acute toxic effects, i.v.” value [3] was “no acute toxic effects”, the “adverse effect, continuous i.v. administration” value [4] was “no adverse effect” and the Kp ([5]; brain, read-out: brain level as % of the plasma concentration) was 0.8. The “distribution, in words” value ([5]; in vivo) was “widely available throughout the body and is able to cross all of the barriers to distribution, including the blood brain barrier”, the plasma half-life [6] was “three to four” and the “pH below which PBN degrades” value [7] was 3 to 4 pH. For the same molecule, the mutagenicity [8] was “not mutagenic”.
For `O=C1O[C@H]([C@@H](O)CO)C(O)=C1O` [ascorbate], the “increase in ulceration compared to control stomachs treated with piroxicam alone” value ([1]; ascorbate plus piroxicam, P<0.001) was “over 600%” and the “ulceration (ascorbate experiment)” value ([1]; ascorbate-treated stomachs (with piroxicam) vs piroxicam alone, P<0.001) was 0.194±0.039 cm^2.
For `CC(=O)Oc1ccccc1C(=O)O` [aspirin], the “gastric ulceration caused by NSAID” value [9] is listed as 0.972±0.318 cm^2 and the “mucosal adenosine triphosphate (ATP) and phosphocreatine (PC)” value [10] is listed as “decreases mucosal adenosine triphosphate (ATP) and phosphocreatine (PC)”.
In the case of `O=C(O)c1cc(-c2ccc(F)cc2F)ccc1O` [diflunisal], the “gastric ulceration caused by NSAID” value [9] is reported as 0.597±0.103 cm^2.
With `CC(C)Cc1ccc(C(C)C(=O)O)cc1` (centres unmarked) [ibuprofen] the “gastric ulceration caused by NSAID” value [9] was 0.644±0.110 cm^2.
For `COc1ccc2cc([C@H](C)C(=O)O)ccc2c1` [naproxen], the “gastric ulceration caused by NSAID” value [9] was 0.370±0.056 cm^2.
